Experiments:
BRD2 (His-Brd2(60-472)) = BRD2 (His-Brd2(60-472)) (Homo sapiens (Human), UniProt P25440); assay: TR-FRET in-vitro binding assay for BRD2; conditions: acetyl-histone H4 peptide
MV-4-11 cells = assay: Cell growth inhibition assay (CellTiter-Glo), MV-4-11; assay type: cell-based, human; conditions: MV-4-11, 4 days; for GI50: Homo sapiens, MV4-11, 96 h, half-maximal growth inhibition; for MV-4-11 TGI: total growth inhibition
Method in brief: (§1)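 Growth of each leukemia line in its own serum-containing medium was measured by CellTiter-Glo ATP luminescence after 4 days at 37 °C with 3-fold serial dilutions starting at 10 μM (0.1% DMSO). Readings were corrected for background and day 0, scaled so that vehicle is 100% and medium-only is −100%, and 4-parameter fits gave IC50 and TGI.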

BRD3 (His-Brd3(20-477)) = BRD3 (His-Brd3(20-477)) (Homo sapiens (Human), UniProt Q15059); assay: TR-FRET in-vitro binding assay for BRD3; conditions: acetyl-histone H4 peptide
Sequence of BRD3 (His-Brd3(20-477)) (Q15059 20-477, species assumed): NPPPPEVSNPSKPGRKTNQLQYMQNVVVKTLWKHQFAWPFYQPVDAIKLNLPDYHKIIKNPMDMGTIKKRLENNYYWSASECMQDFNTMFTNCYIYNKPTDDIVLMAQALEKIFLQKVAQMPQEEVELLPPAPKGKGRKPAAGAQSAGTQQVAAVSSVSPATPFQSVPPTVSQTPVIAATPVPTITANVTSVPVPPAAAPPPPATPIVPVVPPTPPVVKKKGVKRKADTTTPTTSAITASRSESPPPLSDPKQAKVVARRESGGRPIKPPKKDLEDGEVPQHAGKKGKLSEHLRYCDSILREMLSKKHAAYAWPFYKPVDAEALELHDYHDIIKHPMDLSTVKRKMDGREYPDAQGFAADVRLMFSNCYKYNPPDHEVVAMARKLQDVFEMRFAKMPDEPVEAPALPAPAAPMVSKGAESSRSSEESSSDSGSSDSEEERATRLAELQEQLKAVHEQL

K-562 cells = assay: Cell growth inhibition assay (CellTiter-Glo), K-562; assay type: cell-based, human; conditions: K-562, 4 days; for GI50: Homo sapiens, K562, 96 h, half-maximal growth inhibition; for K-562 TGI: total growth inhibition
Method in brief: as §1

Sequence of BRD2 (His-Brd2(60-472)) (P25440 60-472, species assumed): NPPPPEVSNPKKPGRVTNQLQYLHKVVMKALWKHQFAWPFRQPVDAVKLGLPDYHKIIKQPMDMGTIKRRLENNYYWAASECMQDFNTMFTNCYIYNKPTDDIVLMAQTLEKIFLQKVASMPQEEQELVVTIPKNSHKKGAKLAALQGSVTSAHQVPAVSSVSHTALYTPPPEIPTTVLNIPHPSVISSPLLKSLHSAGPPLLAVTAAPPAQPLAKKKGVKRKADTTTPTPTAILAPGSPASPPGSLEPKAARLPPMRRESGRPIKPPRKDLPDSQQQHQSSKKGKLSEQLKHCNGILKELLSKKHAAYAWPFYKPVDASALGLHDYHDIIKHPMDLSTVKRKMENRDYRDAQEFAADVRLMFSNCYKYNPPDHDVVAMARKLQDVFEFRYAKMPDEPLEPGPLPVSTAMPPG

Row | SMILES | IC50 (BRD2 (His-Brd2(60-472))) [nM] | GI50 (MV-4-11 cells) [nM] | MV-4-11 TGI (MV-4-11 cells) [nM] | IC50 (BRD3 (His-Brd3(20-477))) [nM] | GI50 (K-562 cells) [nM] | K-562 TGI (K-562 cells) [nM]
1 | Cc1nn(C(C)C)c2c1C(=O)N(c1cc(C)c(=O)n(C)c1)C2c1ccc(Cl)cc1 (stereo not drawn) [Example 12, 6-(4-chlorophenyl)-5-(1,5-dimethyl-6-oxo-1,6-dihydropyridin-3-yl)-1-isopropyl-3-methyl-5,6-dihydropyrrolo[3,4-c]pyrazol-4(1H)-one] | 52 | 19.1 | 37.4 | 46 | 193 | >10000
2 | Cc1nn(C)c2c1C(=O)N(c1cc(C)c(=O)n(C)c1)C2c1ccc(Cl)cc1 (stereo not drawn) [Example 10, 6-(4-chlorophenyl)-5-(1,5-dimethyl-6-oxo-1,6-dihydropyridin-3-yl)-1,3-dimethyl-5,6-dihydropyrrolo[3,4-c]pyrazol-4(1H)-one] | 84 | 39.4 | 65.5 | 62 | 336 | >10000
3 | Cc1cc(N2C(=O)c3c(C4CC4)n[nH]c3[C@H]2c2ccc(Cl)cc2)cn(C)c1=O [Example 24, (R)-6-(4-chlorophenyl)-3-cyclopropyl-5-(1,5-dimethyl-6-oxo-1,6-dihydropyridin-3-yl)-5,6-dihydropyrrolo[3,4-c]pyrazol-4(1H)-one] | 74 | 21.6 | 34.95 | 47 | 103 | >10000
4 | COc1ccc(-n2nc3c(c2C)C(=O)N(c2cc(C)c(=O)n(C)c2)C3c2ccc(Cl)cc2)cn1 (stereo not drawn) [Example 20a, 6-(4-chlorophenyl)-5-(1,5-dimethyl-6-oxo-1,6-dihydropyridin-3-yl)-2-(6-methoxypyridin-3-yl)-3-methyl-5,6-dihydropyrrolo[3,4-c]pyrazol-4(2H)-one] | 61 | 49.6 | 65 | 50 | 236 | >10000
5 | COc1ncccc1-c1nn(C)c2c1C(=O)N(c1cc(C)c(=O)n(C)c1)C2c1ccc(Cl)cc1 (stereo not drawn) [Example 15, 6-(4-chlorophenyl)-5-(1,5-dimethyl-6-oxo-1,6-dihydropyridin-3-yl)-3-(2-methoxypyridin-3-yl)-1-methyl-5,6-dihydropyrrolo[3,4-c]pyrazol-4(1H)-one] | 70 | 54.6 | 92.4 | 65.5 | 640 | >10000
6 | COc1ncccc1-n1nc2c(c1C)C(=O)N(c1cc(C)c(=O)n(C)c1)[C@@H]2c1ccc(Cl)cc1 [Example 26, (R)-6-(4-chlorophenyl)-5-(1,5-dimethyl-6-oxo-1,6-dihydropyridin-3-yl)-2-(2-methoxypyridin-3-yl)-3-methyl-5,6-dihydropyrrolo[3,4-c]pyrazol-4(2H)-one] | 110 | 22.6 | 36.75 | 52 | 174 | >10000
